Structures can show the parent of a compound that is named as a salt.
Experiments:
AXOR35 [1] = target: T1, AXOR35 (Homo sapiens, UniProt Q9H3N8); settings: histamine challenge of control cells transiently expressing AXOR35
Procedure: Prior to challenge with histamine, cells transiently expressing AXOR35 are treated with increasing concentrations of test compound. […] Antagonist activity is calculated as the concentration of test compound required to inhibit 50% of a maximum histamine response (IC50).

AXOR35 [2] = target: T1, AXOR35; settings: calcium mobilization response, method analogous to Example 8

Row | EC80 (AXOR35 [1]) [nM] | ligand for AXOR35 (AXOR35 [2]) | melting point [°C] | Compound
1 | 100 | ligands for AXOR35 |  | NCCc1c[nH]cn1 [histamine, 1H-imidazole-4-ethanamine]
2 |  |  | 264 to 266 | NCC(c1ccccc1)c1cnc[nH]1 (stereo not shown) (as salt: hydrochloride)
3 |  |  | 254 to 256 | NCC(Cc1ccc(Cl)cc1)c1c[nH]cn1 (stereo not shown) (as salt: hydrochloride)
